Assay results taken from patent publication US20250129070A1, “BIFUNCTIONAL ANDROGEN RECEPTOR COMPOUNDS” (priority 2023, published 2025).

How the values were obtained:
[1] = tested on: AR / CBP ternary complex; test: Ternary complex formation assay (sandwich ELISA, AR capture / CBP detection) in VCaP cell lysates; type: cell-based; conditions: 1.5 hours treatment, sandwich ELISA (AR capture, CBP or p300 detection)
Outline: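 VCaP cells (50K/well, 5% charcoal-stripped FBS, ≥3 days) treated with bifunctional compound for 1.5 h, then lysed 30 min at 4 °C. AR captured on anti-AR (AR 441) plates; bound CBP or p300 detected by rabbit mAb plus HRP secondary. QuantaRed chemifluorescence read at ex 570/em 585, immediately and at 5 and 15 min.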

[2] = tested on: VCaP cells; test: VCaP growth inhibition assay; type: cell-based; conditions: 30 pM R1881, 9 days, CTG
Outline: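 VCaP cells in phenol red-free DMEM/5% CSS, pre-incubated 72 h, then stimulated with R1881 (final 30 pM) and treated with 1:5 serial dilutions (final 100 nM to 10 fM) for 9 days at 37 °C. Viability by CellTiter-Glo luminescence; IC50 from 4-parameter logistic fit of RLU vs concentration.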

Compound | EC50 [1] [nM] | IC50 [2] [nM]
CC(=O)N1CCc2c(c(N3CCCc4cc(-c5cnn(C)c5)c(C(F)F)cc43)nn2C2CCC3(CC2)CCN(CC2CN(c4ccc(C(=O)NC5C(C)(C)C(Oc6ccc(C#N)c(Cl)c6)C5(C)C)nn4)C2)CC3)C1 (stereo not shown) [Compound 209, 6-[3-[[9-[5-acetyl-3-[7-(difluoromethyl)-6-(1-methylpyrazol-4-yl)-3,4-dihydro-2H-quinolin-1-yl]-6,7-dihydro-4H-pyrazolo[4,3-c]pyridin-1-yl]-3-azaspiro[5.5]undecan-3-yl]methyl]azetidin-1-yl]-N-[3-(3-chloro-4-cyano-phenoxy)-2,2,4,4-tetramethyl-cyclobutyl]pyridazine-3-carboxamide] | 10 to 100 | ≤ 0.1
COC1CN(c2ncc(C(=O)NC3C(C)(C)C(Oc4ccc(C#N)c(Cl)c4)C3(C)C)cn2)CCC1CN1CCC(n2nc(N3CCCc4cc(-c5cnn(C)c5)c(C(F)F)cc43)c3c2CCN(C(C)=O)C3)CC1 (stereo not shown) [Compound 331, 2-[4-[[4-[5-acetyl-3-[7-(difluoromethyl)-6-(1-methylpyrazol-4-yl)-3,4-dihydro-2H-quinolin-1-yl]-6,7-dihydro-4H-pyrazolo[4,3-c]pyridin-1-yl]-1-piperidyl]methyl]-3-methoxy-1-piperidyl]-N-[3-(3-chloro-4-cyano-phenoxy)-2,2,4,4-tetramethyl-cyclobutyl]pyrimidine-5-carboxamide] | < 1 | 0.1 to 1
Cn1c(=O)sc2ccc(N3CCCc4cc(-c5ccc(CCC6CCN(c7ncc(C(=O)NC8C(C)(C)C(Oc9ccc(C#N)c(Cl)c9)C8(C)C)cn7)CC6)nc5)c(C(F)F)cc43)cc21 (stereo not shown) [Compound 236, N-[3-(3-chloro-4-cyano-phenoxy)-2,2,4,4-tetramethyl-cyclobutyl]-2-[4-[2-[5-[7-(difluoromethyl)-1-(3-methyl-2-oxo-1,3-benzothiazol-5-yl)-3,4-dihydro-2H-quinolin-6-yl]-2-pyridyl]ethyl]-1-piperidyl]pyrimidine-5-carboxamide] | > 100 | > 100
CC(=O)N1CCc2c(c(N3CCCc4cc(-c5cnn(C)c5)c(C(F)F)cc43)nn2C2CCN(C(C)COC3CCN(c4ncc(C(=O)NC5C(C)(C)C(Oc6ccc(C#N)c(Cl)c6)C5(C)C)cn4)CC3)CC2)C1 (stereo not shown) [Compound 169, 2-[4-[2-[4-[5-acetyl-3-[7-(difluoromethyl)-6-(1-methylpyrazol-4-yl)-3,4-dihydro-2H-quinolin-1-yl]-6,7-dihydro-4H-pyrazolo[4,3-c]pyridin-1-yl]-1-piperidyl]propoxy]-1-piperidyl]-N-[3-(3-chloro-4-cyano-phenoxy)-2,2,4,4-tetramethyl-cyclobutyl]pyrimidine-5-carboxamide] | < 1 | ≤ 0.1
COc1cc(OC2C(C)(C)C(NC(=O)c3ccc(N4CCC(C5CCC(n6cc(-c7cc8cccc(-c9nn(C%10CCOCC%10)c%10c9CN(C(C)=O)CC%10)c8cn7)cn6)CC5)CC4)cc3)C2(C)C)ccc1C#N (stereo not shown) [Compound 271, 4-[4-[4-[4-[8-(5-acetyl-1-tetrahydropyran-4-yl-6,7-dihydro-4H-pyrazolo[4,3-c]pyridin-3-yl)-3-isoquinolyl]pyrazol-1-yl]cyclohexyl]-1-piperidyl]-N-[3-(4-cyano-3-methoxy-phenoxy)-2,2,4,4-tetramethylcyclobutyl]benzamide] | < 1 | 0.1 to 1
CC(=O)N1CCc2c(c(N3CCCc4cc(-c5cnn(C)c5)c(C(F)F)cc43)nn2C2CCN(CC3CCN(c4ccc5c(n4)CN(C4C(C)(C)C(Oc6ccc(C#N)c(Cl)c6)C4(C)C)C5=O)CC3)CC2)C1 (stereo not shown) [Compound 296, 4-[3-[2-[4-[[4-[5-acetyl-3-[7-(difluoromethyl)-6-(1-methylpyrazol-4-yl)-3,4-dihydro-2H-quinolin-1-yl]-6,7-dihydro-4H-pyrazolo[4,3-c]pyridin-1-yl]-1-piperidyl]methyl]-1-piperidyl]-5-oxo-7H-pyrrolo[3,4-b]pyridin-6-yl]-2,2,4,4-tetramethyl-cyclobutoxy]-2-chloro-benzonitrile] | < 1 | 0.1 to 1
CC(=O)N1CCc2c(c(N3CCCc4cc(-c5cnn(C)c5)c(C(F)F)cc43)nn2C2CCN(C(=O)C3CCN(c4ccc5c(n4)CN(C4C(C)(C)C(Oc6ccc(C#N)c(Cl)c6)C4(C)C)C5=O)CC3)CC2)C1 (stereo not shown) [Compound 299, 4-[3-[2-[4-[4-[5-acetyl-3-[7-(difluoromethyl)-6-(1-methylpyrazol-4-yl)-3,4-dihydro-2H-quinolin-1-yl]-6,7-dihydro-4H-pyrazolo[4,3-c]pyridin-1-yl]piperidine-1-carbonyl]-1-piperidyl]-5-oxo-7H-pyrrolo[3,4-b]pyridin-6-yl]-2,2,4,4-tetramethyl-cyclobutoxy]-2-chloro-benzonitrile] | < 1 | 0.1 to 1
CC(=O)N1CCc2c(c(N3CCCc4cc(-c5cnn(C)c5)c(C(F)F)cc43)nn2C2CCC(OC3CCN(c4ncc(C(=O)NC5C(C)(C)C(Oc6ccc(C#N)c(Cl)c6)C5(C)C)cn4)CC3)CC2)C1 (stereo not shown) [Compound 339, 2-[4-[4-[5-acetyl-3-[7-(difluoromethyl)-6-(1-methylpyrazol-4-yl)-3,4-dihydro-2H-quinolin-1-yl]-6,7-dihydro-4H-pyrazolo[4,3-c]pyridin-1-yl]cyclohexoxy]-1-piperidyl]-N-[3-(3-chloro-4-cyano-phenoxy)-2,2,4,4-tetramethyl-cyclobutyl]pyrimidine-5-carboxamide] | < 1 | ≤ 0.1
CC(=O)N1CCc2c(c(-c3cccc4cc(-c5cnn(CC6CC7(C6)CN(c6ncc(C(=O)NC8C(C)(C)C(Oc9ccc(C#N)c(Cl)c9)C8(C)C)cn6)C7)c5)ncc34)nn2C)C1 (stereo not shown) [Compound 224, 2-[6-[[4-[8-(5-acetyl-1-methyl-6,7-dihydro-4H-pyrazolo[4,3-c]pyridin-3-yl)-3-isoquinolyl]pyrazol-1-yl]methyl]-2-azaspiro[3.3]heptan-2-yl]-N-[3-(3-chloro-4-cyano-phenoxy)-2,2,4,4-tetramethyl-cyclobutyl]pyrimidine-5-carboxamide] | < 1 | 0.1 to 1
COc1cc(OC2C(C)(C)C(NC(=O)c3ccc(OC4CC5(CCC(N6CCC(n7nc(N8CCCc9cc(-c%10cnn(C)c%10)c(C(F)F)cc98)c8c7CCN(C(C)=O)C8)CC6)CC5)C4)cc3)C2(C)C)ccc1C#N (stereo not shown) [Compound 384, 4-[7-[4-[5-acetyl-3-[7-(difluoromethyl)-6-(1-methylpyrazol-4-yl)-3,4-dihydro-2H-quinolin-1-yl]-6,7-dihydro-4H-pyrazolo[4,3-c]pyridin-1-yl]-1-piperidyl]spiro[3.5]nonan-2-yl] oxy-N-[3-(4-cyano-3-methoxy-phenoxy)-2,2,4,4-tetramethyl-cyclobutyl]benzamide] | < 1 | ≤ 0.1
CC(=O)N1CCc2c(c(N3CCCc4cc(-c5cnn(C)c5)c(C)cc43)nn2C2CCN(C3CCC4(CC3)CN(c3ncc(C(=O)NC5C(C)(C)C(Oc6ccc(C#N)c(Cl)c6C)C5(C)C)cn3)C4)CC2)C1 (stereo not shown) [Compound 473, 2-[7-[4-[5-acetyl-3-[7-methyl-6-(1-methylpyrazol-4-yl)-3,4-dihydro-2H-quinolin-1-yl]-6,7-dihydro-4H-pyrazolo[4,3-c]pyridin-1-yl]-1-piperidyl]-2-azaspiro[3.5]nonan-2-yl]-N-[3-(3-chloro-4-cyano-2-methyl-phenoxy)-2,2,4,4-tetramethyl-cyclobutyl]pyrimidine-5-carboxamide] | < 1 | 0.1 to 1
CC(=O)N1CCc2c(c(N3CCCc4cc(-c5cnn(C)c5)c(C(F)F)cc43)nn2C2CC3(C2)CN(C(=O)C2CC4(C2)CN(c2ncc(C(=O)NC5C(C)(C)C(Oc6ccc(C#N)c(Cl)c6)C5(C)C)cn2)C4)C3)C1 (stereo not shown) [Compound 217, 2-[6-[6-[5-acetyl-3-[7-(difluoromethyl)-6-(1-methylpyrazol-4-yl)-3,4-dihydro-2H-quinolin-1-yl]-6,7-dihydro-4H-pyrazolo[4,3-c]pyridin-1-yl]-2-azaspiro[3.3]heptane-2-carbonyl]-2-azaspiro[3.3]heptan-2-yl]-N-[3-(3-chloro-4-cyano-phenoxy)-2,2,4,4-tetramethyl-cyclobutyl]pyrimidine-5-carboxamide] | < 1 | 0.1 to 1
CC(=O)N1CCc2c(c(N3CCCc4cc(-c5cnn(C)c5)c(C(F)F)cc43)nn2CCOC2CCN(c3ncc(C(=O)NC4C(C)(C)C(Oc5ccc(C#N)c(Cl)c5)C4(C)C)cn3)CC2)C1 (stereo not shown) [Compound 51, 2-[4-[2-[5-acetyl-3-[7-(difluoromethyl)-6-(1-methylpyrazol-4-yl)-3,4-dihydro-2H-quinolin-1-yl]-6,7-dihydro-4H-pyrazolo[4,3-c]pyridin-1-yl]ethoxy]-1-piperidyl]-N-[3-(3-chloro-4-cyano-phenoxy)-2,2,4,4-tetramethyl-cyclobutyl]pyrimidine-5-carboxamide] | < 1 | 0.1 to 1
CC(=O)N1CCc2c(c(N3CCCc4cc(-c5cnn(C)c5)c(C(F)F)cc43)nn2CCN(C)c2ncc(C(=O)NC3C(C)(C)C(Oc4ccc(C#N)c(Cl)c4)C3(C)C)cn2)C1 (stereo not shown) [Compound 45, 2-[2-[5-acetyl-3-[7-(difluoromethyl)-6-(1-methylpyrazol-4-yl)-3,4-dihydro-2H-quinolin-1-yl]-6,7-dihydro-4H-pyrazolo[4,3-c]pyridin-1-yl]ethyl-methyl-amino]-N-[3-(3-chloro-4-cyano-phenoxy)-2,2,4,4-tetramethyl-cyclobutyl]pyrimidine-5-carboxamide] | > 100 | > 100
